From patent publication US20200308184A1, “TETRAPYRROLIC CONJUGATES AND USES THEREOF FOR IMAGING” (Health Research, Inc., priority 2017, published 2020)
Where two headings read alike, the source gives them in different places.

What was measured:
[1] = published value, 37 C; cited from earlier work
Ward rat tumor = conditions: HPPH alone, previous findings; cited from earlier work
[2] = T1 and T2 relaxivities of compounds 4, 9 & 14 on 4.7 Tesla preclinical MRI; type: physicochemical; conditions: T1 relaxivity, 37C, in PBS
Method: Characterization of MR imaging efficacy for compounds 4, 9 & 14. MR imaging was performed on a 4.7 Tesla preclinical MRI using the ParaVision 3.0.2 acquisition platform (Bruker Biospin, Billerica Mass.). In vitro relaxivities were acquired using the Bruker G060 gradient insert and a quadrature radiofrequency coil (35 mm ID, m2m Imaging, Cleveland Ohio). In vivo imaging in rat models utilized larger Accustar® shield gradients (150 mm ID) and a quadrature radiofrequency coil (72 mm ID, Bruker Biospin).
T1 and T2 relaxivities for compounds 4, 9 & 14 were acquired at 37C. Samples were diluted in PBS with concentrations ranging from 50 to 200 μM and transferred to NMR tubes for imaging. A tube containing 1× PBS was included as a “0 μM control”. T1 relaxation rates of serial dilutions were measured using an inversion-recovery TrueFISP acquisition with the following parameters: TE/TR=1.5/3.0 ms, flip angle=30°, inv. Repetition time=10 s, segments=8, frames=100. T2 relaxation rates were measured using a multi-echo, Carr-Purcell-Meiboom-Gill (CPMG) spin-echo sequence with a fixed TR of 3000 ms and TE times ranging from 20-1200 ms in 20 ms increments (60 echoes). The relaxation rate of each sample calculated using non-linear regression analysis routines developed in MATLAB (MathWorks, Natick, Mass.) and relaxivities were then calculated by linear regression (concentration vs. relaxation rate).

Row | SMILES | rl at 4.7T [1] [mM/s] | rl at 4.7T [2] [mM/s] | also measured
1 | O=C([O-])CN1CCN(CC(=O)[O-])CCN(CC(=O)O)CCN(CC(=O)[O-])CC1.[Gd+3] [Gd-DOTA] | 2.8 |  | 
2 | O=C([O-])CN(CCN(CC(=O)[O-])CC(=O)O)CCN(CC(=O)[O-])CC(=O)O.[Gd+3] [Gd-DTPA, Gadolinium-diethyline-triamine pentacetic-acid] | 3.2 |  | 
3 | CCCCCCOC(C)c1c(C)c2cc3nc(c4c5[nH]c(cc6nc(cc1[nH]2)C(C)=C6CC)c(C)c5C(=O)C4)[C@@H](CCC(=O)O)[C@@H]3C (some centres unmarked) [HPPH, 3-(1-hexyloxyethyl) pyropheophorbide-a] |  |  | time of peak concentrations (Ward rat tumor): 24 h
4 | CCCCCCOC(C)c1c(C)c2cc3nc(c4c5[nH]c(cc6nc(cc1[nH]2)C(C)=C6CC)c(C)c5C(=O)C4)[C@@H](CCC(=O)NCCNC(=O)CN1CCN(CC(=O)[O-])CCN(CC(=O)[O-])CCN(CC(=O)[O-])CC1)C3C.[Gd+3] (some centres unmarked) [compound 4] |  | 4.44 | 
5 | CCCCCCOC(C)c1c(C)c2cc3nc(c4c5[nH]c(cc6nc(cc1[nH]2)C(C)=C6CC)c(C)c5C(=O)C4)[C@@H](CCC(=O)N(CC(=O)NCCNC(=O)CN1CCN(CC(=O)[O-])CCN(CC(=O)[O-])CCN(CC(=O)[O-])CC1)CC(=O)NCCNC(=O)CN1CCN(CC(=O)[O-])CCN(CC(=O)[O-])CCN(CC(=O)[O-])CC1)C3C.[Gd+3].[Gd+3] (some centres unmarked) [compound 9] |  | 10.65 | 
